From patent publication US20230212143A9, “PRMT5 INHIBITOR COMPOUNDS” (University of Florida Research Foundation, Incorporated, priority 2019, published 2023)

Key:
PRMT5 [1] = target: T1, PRMT5 (Homo sapiens, UniProt O14744); test: AlphaLISA enzymatic inhibition assay; type: biochemical; design: made in house; host or cells: Sf9 insect cells (Bac-to-Bac baculovirus system)
Text: (§1) Protein expression and purification. […] Enzymatic inhibition assay. […] Cancer cell lines. […] Cell proliferation assay. […] Western blot.

PRMT5:MEP50 = target: T2, PRMT5:MEP50 (Homo sapiens, UniProt O14744); test: MTase-Glo enzymatic inhibition assay; type: biochemical; conditions: 100 nM PRMT5:MEP50, 10 μM SAM, 2 μM histone H4 (1-21)
T2 construct: made in house; host or cells: Sf9 insect cells (Bac-to-Bac baculovirus system)
Text: as §1

PRMT5 [2] = target: T1, PRMT5; test: Cellular Thermal Shift Assay; type: cell-based; design: endogenous in cells; host or cells: MDA-MB-231; conditions: MDA-MB-231 triple negative breast cancer cells

T2 sequence (O14744 whole entry): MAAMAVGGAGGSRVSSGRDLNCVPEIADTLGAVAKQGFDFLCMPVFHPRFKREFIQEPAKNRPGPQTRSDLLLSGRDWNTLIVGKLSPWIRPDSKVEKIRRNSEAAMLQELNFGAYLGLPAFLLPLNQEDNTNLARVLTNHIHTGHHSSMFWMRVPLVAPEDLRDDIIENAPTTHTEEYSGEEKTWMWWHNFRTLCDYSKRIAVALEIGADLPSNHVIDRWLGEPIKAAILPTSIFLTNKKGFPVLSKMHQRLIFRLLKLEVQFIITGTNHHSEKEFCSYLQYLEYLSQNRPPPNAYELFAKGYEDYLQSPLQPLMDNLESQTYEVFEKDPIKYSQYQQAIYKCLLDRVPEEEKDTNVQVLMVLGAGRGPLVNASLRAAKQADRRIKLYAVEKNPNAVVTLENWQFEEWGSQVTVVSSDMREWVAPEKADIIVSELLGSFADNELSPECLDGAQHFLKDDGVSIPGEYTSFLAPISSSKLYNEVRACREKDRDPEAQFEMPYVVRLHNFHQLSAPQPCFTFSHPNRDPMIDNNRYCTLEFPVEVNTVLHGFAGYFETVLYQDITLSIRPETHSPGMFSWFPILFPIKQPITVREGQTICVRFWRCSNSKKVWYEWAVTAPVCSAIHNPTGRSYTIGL
T2 sequence (Q9BQA1 whole entry partner): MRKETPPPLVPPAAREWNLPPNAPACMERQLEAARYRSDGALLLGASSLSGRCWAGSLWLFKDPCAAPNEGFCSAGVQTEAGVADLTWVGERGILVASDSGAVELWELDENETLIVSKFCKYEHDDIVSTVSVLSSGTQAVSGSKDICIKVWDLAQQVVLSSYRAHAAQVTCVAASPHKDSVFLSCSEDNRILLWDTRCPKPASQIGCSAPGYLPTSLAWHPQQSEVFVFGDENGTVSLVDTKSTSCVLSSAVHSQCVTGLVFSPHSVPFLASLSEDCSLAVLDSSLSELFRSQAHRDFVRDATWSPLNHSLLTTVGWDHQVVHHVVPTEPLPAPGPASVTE
T1 sequence (O14744 whole entry): as the sequence (O14744 whole entry) above
T1 sequence (Q9BQA1 whole entry partner): as the sequence (Q9BQA1 whole entry partner) above

Row | IC50 (PRMT5:MEP50; 11-series) [µM] | IC50 (PRMT5:MEP50; 15-series) [µM] | SMILES | further results
1 |  |  | CCn1c2ccccc2c2cc(CNCc3ccccn3)ccc21 [CMP5] | enzymatic inhibition activity (PRMT5 [1]): weak
2 | 1.34 |  | CCn1c2c(c3cc(C(=O)NCc4ccc5ccc(N)nc5c4)ccc31)CCCC2 [Compound 11-1F] | 
3 | 0.883 |  | Nc1ccc2ccc(CNC(=O)c3ccc4c(c3)c3c(n4CCO)CCCC3)cc2n1 [Compound 11-2F] | 
4 |  |  | CCn1c2c(c3cc(C(=O)NCc4ccc5c(N)nc(N)nc5c4)ccc31)CCCC2 [Compound 11-9F] | PRMT5 melting temperature increase (PRMT5 [2]): 1.5 degree Celsius
5 |  | 0.218 | CC(=O)N1CCC(Nc2cc(C(=O)NCc3ccc4ccc(N)nc4c3)ncn2)CC1 [Compound 15-1F] | 
6 |  | 0.152 | CC(=O)N1CCC(Nc2cc(C(=O)NCc3ccc4c(N)nc(N)nc4c3)ncn2)CC1 [Compound 15-2F] | 
